Experimental data reported in patent US20240197603A1, “METHODS AND COMPOSITIONS FOR TREATING HYPERPIGMENTATION DISORDERS” (INSERM (INSTITUT NATIONAL DE LA SANTÉ ET DE LA RECHERCHE …, priority 2021, published 2024).

Tests used:
B16F10 cells [1] = assay: Western blot of protein expression in B16F10 cells; type: cell-based, Mouse
Protocol: Proteins were analyzed by SDS-PAGE and transferred on PVDF membranes (Sigma, France). The antibodies used were as follow: beta-actin (ab8226), MITF (ab12039) and Tyrosinase (ab738) from Abcam, Rab27a (#69295) and HSP90 (#4874) from Cell Signaling Technologies, SLC7A5 (sc-374232) and TYRPI (sc-166857) from Santa Cruz. Signals were detected with horseradish peroxidase conjugated secondary antibodies using ECL detection kit and quantified by digital imaging (Fuji LAS4000).

[2] = test system: Phototype VI Reconstructed Human Pigmented Epidermis
Protocol: Phototype VI Reconstructed Human Pigmented Epidermis (Sterlab, France) were treated with BCH or vehicle for 7 days. 10 μm cryosections were used to visualize melanin using Fontana-Masson stain kit (Interchim, France). Images were taken with a Nikon microscope and a 20× lens. Melanin content was quantified after solubilization of epidermis in Solvable® solution (PerkinElmer, France), and melanin content was quantified as described above.

B16F10 cells [3] = assay: Melanin content in B16F10 cells; type: cell-based, Mouse
Protocol: (§1) Mouse B16F10 and Human 501Mel melanoma cells were cultured in Dulbecco's modified Eagle's medium (DMEM) supplemented with 7% Fetal Bovine Serum and 1% Penicillin/Streptomycin. Human MNT1 melanoma cells were cultured as described (Yasumoto et al., 2004). Normal Human Melanocytes were isolated from foreskin obtained after phimosis surgery. Patient consent was not required because French laws consider tissue left over from postectomy as discarded material. Melanocytes were cultured in MCDB medium as described (Bonet et al., 2017). Cells were tested every 4 weeks for […] presence. […] Cells were transfected with 50 nM siRNAs to SLC7A5, MITF or control siRNAs (ON-TARGETplus, Dharmacon) using HiPerfect transfection reagent (Qiagen, France). When indicated, Forskolin (20 μM) and IBMX (100 μM) were added to induce pigmentation on B16F10 cells. 48 hours later, medium was removed, and cells were used for western blot, quantitative PCR, melanin content analyses, immunofluorescence or brightfield imaging. Cells were detached with 0.05% Trypsin-EDTA solution (Thermo Scientific, France) and solubilized in NaOH 0.5N. Optical density was measured at 405 nm using melanin standard as a reference. Melanin content was normalized to the protein content.

[4] = test system: normal human melanocytes (NHM); assay: Melanin production in normal human melanocytes; type: cell-based; conditions: pigmented normal human melanocytes
Protocol: as §1, with “were” for “were transfected with 50 nM siRNAs to SLC7A5, MITF or control siRNAs (ON-TARGETplus, Dharmacon) using HiPerfect transfection reagent (Qiagen, France). When indicated, Forskolin (20 μM) and IBMX (100 μM) were added to induce pigmentation on B16F10 cells. 48 hours later, medium was removed, and cells were used for western blot, quantitative PCR, melanin content analyses, immunofluorescence or brightfield imaging. Cells were”

tyrosinase [5] = biological target: T1, tyrosinase (Mus musculus, UniProt P11344); assay: DOPA oxidase assay, agent added directly in cell lysates; type: biochemical; parameters: when added directly in cell lysates during the DOPA oxidase assay; endogenous in cells; B16F10 by context); conditions: during the DOPA oxidase assay
T1 sequence (P11344 19-533): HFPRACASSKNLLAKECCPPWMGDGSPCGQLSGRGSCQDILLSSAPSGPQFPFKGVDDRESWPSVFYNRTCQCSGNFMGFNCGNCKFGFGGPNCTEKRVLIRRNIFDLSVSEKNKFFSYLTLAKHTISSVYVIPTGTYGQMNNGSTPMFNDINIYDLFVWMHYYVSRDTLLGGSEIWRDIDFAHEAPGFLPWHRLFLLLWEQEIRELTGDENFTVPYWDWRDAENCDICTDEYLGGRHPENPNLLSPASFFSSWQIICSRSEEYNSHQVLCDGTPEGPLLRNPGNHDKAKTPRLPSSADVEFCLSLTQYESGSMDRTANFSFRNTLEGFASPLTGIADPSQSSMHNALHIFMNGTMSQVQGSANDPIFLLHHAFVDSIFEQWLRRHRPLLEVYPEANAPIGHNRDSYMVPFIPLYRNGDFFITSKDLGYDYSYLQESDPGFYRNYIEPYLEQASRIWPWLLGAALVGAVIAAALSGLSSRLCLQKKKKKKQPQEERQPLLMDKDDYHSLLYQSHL
Protocol: (§2) Proteins were resuspended in 0.1M Sodium Phosphate pH 6.8, supplemented with 5 mM L-DOPA. After incubation for 1 hour at 37° C., optical density was read at 475 nm.

[6] = test system: MNT1 human melanoma cells; assay: Melanin production in MNT1 human melanoma cells; type: cell-based
Protocol: as §1, with “were” for “were transfected with 50 nM siRNAs to SLC7A5, MITF or control siRNAs (ON-TARGETplus, Dharmacon) using HiPerfect transfection reagent (Qiagen, France). When indicated, Forskolin (20 μM) and IBMX (100 μM) were added to induce pigmentation on B16F10 cells. 48 hours later, medium was removed, and cells were used for western blot, quantitative PCR, melanin content analyses, immunofluorescence or brightfield imaging. Cells were”

tyrosinase [7] = biological target: T1, tyrosinase; assay: Tyrosinase (L-DOPA) activity after treatment of B16F10 cells; type: cell-based; parameters: endogenous in cells; host or cells: B16F10 melanoma cells; conditions: B16F10 cells treated at 10 mM
Protocol: as §2

B16F10 cells [8] = assay: Cell viability / proliferation of B16F10 cells (CellTiter Aqueous One); type: cell-based, Mouse
Protocol: Mouse B16F10 and Human 501Mel melanoma cells were cultured in Dulbecco's modified Eagle's medium (DMEM) supplemented with 7% Fetal Bovine Serum and 1% Penicillin/Streptomycin. Human MNT1 melanoma cells were cultured as described (Yasumoto et al., 2004). Normal Human Melanocytes were isolated from foreskin obtained after phimosis surgery. Patient consent was not required because French laws consider tissue left over from postectomy as discarded material. Melanocytes were cultured in MCDB medium as described (Bonet et al., 2017). Cells were tested every 4 weeks for […] presence. […] Cell viability was evaluated using CellTiter Aqueous One Solution Cell Proliferation Assay (Promega, France) as recommended by the supplier.

SMILES | Slc7a5 expression (B16F10 cells [1]; Western blot, B16F10 cells) | Tyrosinase or Rab27a expression (B16F10 cells [1]; Western blot, B16F10 cells) | Tyrp1 expression (B16F10 cells [1]; Western blot, B16F10 cells) | conversion of LC3-I to LC3-II (autophagy) (B16F10 cells [1]; at 5 and 10 mM) | epidermis structure and keratinisation [2] | melanin content of reconstructed epidermis ([2]; treated for 7 days) | pigmentation of reconstructed epidermis (macroscopic, bright field images) ([2]; treated for 7 days) | pigmented melanocytes in epidermis sections (Fontana Masson staining) ([2]; treated for 7 days) | inhibition of melanin production (B16F10 cells [3]; B16F10 cells, BCH at 5 mM) [%] | inhibition of melanin production (B16F10 cells [3]; B16F10 cells, BCH at 10 mM) [%] | melanin production [4] | tyrosinase activity, added directly in cell lysates (tyrosinase [5]) | melanin production [6] | tyrosinase activity after treatment of cells (tyrosinase [7]) | inhibition of pigmentation (melanin content) (B16F10 cells [3]; B16F10 cells, JPH203 at 10 and 50 μM, FIG. 2) | cell proliferation (B16F10 cells [8]; JPH203 at 10 and 50 μM) | inhibition at 1000 µM (B16F10 cells [3]; Mus musculus, B16-F10) [%] | cell proliferation (B16F10 cells [8]; doses of Kojic acid that inhibit melanogenesis)
NC1(C(=O)O)CC2CCC1C2 (stereo not shown) [BCH] | did not affect Slc7a5 expression | not affected consistently | dose-dependent increase | induced a conversion of LC3-I to LC3-II | without affecting epidermis structure or keratinisation | statistically significant decrease in melanin content | inhibited pigmentation | absence of pigmented melanocytes | 25 | 60 | significantly decreased melanin production | does not inhibit tyrosinase activity | significantly decreased melanin production | did not |  |  |  | 
Nc1cc(COc2c(Cl)cc(C[C@H](N)C(=O)O)cc2Cl)c2oc(-c3ccccc3)nc2c1 [JPH203, O-[(5-amino-2-phenyl-7-benzoxazolyl)methyl]-3,5-dichloro-L-tyrosine] |  |  |  |  |  |  | strong inhibition of pigmentation |  |  |  |  |  |  |  | efficiently inhibited pigmentation | did not inhibit cell proliferation |  | 
O=c1cc(CO)occ1O [Kojic Acid] |  |  |  |  |  |  |  |  |  |  |  |  |  |  |  |  | 60 | did not affect cell proliferation
